Results reported in patent US20250171743A1, “HUMAN TOOTH ORGANOIDS” (Katholieke Universiteit Leuven, priority 2022, published 2025).

What was measured:
tooth organoids [1] = experiment: Effect of TGFβ and TGFβ receptor inhibitor on differentiation of organoids switched to MIM; assay type: cell-based, human
Excerpt: The above analyses exposed the enrichment of TGFβ pathway processes in tooth organoids subjected to ameloblast differentiation, in line with the proposed key role of TGFβ in amelogenesis. To assess the impact of the TGFβ pathway, organoids grown in TOM (P5) were switch to MIM with or without TGFβ (FIG. 6a).
During tooth root development, Hertwig's epithelial root sheath (HERS), from which epithelial cell rests of Malassez is eventually derived, undergoes EMT to develop to participate in periodontal ligament formation. It has previously been proposed that this EMT process is regulated by TGFβ, thereby triggering HERS/epithelial cell rests of Malassez cells to switch phenotype toward periodontal ligament cells.
Organoids (or dissociated dental follicle) were cultured in mineralization-inducing medium (MIM; Table 3; time schedule, see FIG. 4a and FIG. 10d) as described above. Recombinant human TGFβ1 (10 ng/ml; R&D) and the selective TGFβ receptor 1/2 inhibitor LY2109761 (5 μM; Selleckchem) were added when indicated.
(§1) Primary dental follicle tissue, organoids and assembloid were fixed in 4% PFA for 1h, embedded in paraffin, and sections subjected to hematoxylin and eosin (H&E), immunofluorescence or ARS staining. Antigen retrieval (10 mM citrate, pH6) and permeabilization (0.1% Triton X-100; Sigma-Aldrich) were performed. After incubation with primary and secondary antibodies (Table 5), sections were mounted with Vectashield (DAPI; Vector Laboratories) or DPX mountant (Sigma-Aldrich). Analysis was done using a Leica DM5500 epifluorescence microscope or a Zeiss Axioimager epifluorescence microscope. ImageJ software was used to quantify immunoreactive signal intensity and the ‘corrected total organoid fluorescence’ (CTOF) (=integrated density−(area of organoid×mean fluorescence of background readings).
(§2) RNA was extracted from dissociated dental follicle, organoids and assembloids using the GenElute Mammalian Total RNA Miniprep Kit (Sigma-Aldrich) according to the manufacturer's instructions. RNA was reverse-transcribed (RT) using the Superscript III First-Strand Synthesis Supermix (Thermo Fisher Scientific) and the resultant cDNA samples were analysed with SYBR Green-based quantitative PCR (qPCR) using the StepOnePlus Real-Time PCR System (AB Applied Biosystems). Forward and reverse primers (Table 6) were designed using PrimerBank and PrimerBlast. Glyceraldehyde-3-phosphate dehydrogenase (GAPDH) was included as housekeeping gene. Relative gene expression levels were calculated as ΔCt (Ct target−Ct housekeeping gene) and compared to control (see figure legends).

assembloids = experiment: Assembloids (organoid-derived epithelial cells plus DPSCs) cultured in TOM+αMEM with TGFβ receptor inhibitor; assay type: cell-based, human; conditions: inhibitor 5 μM in TOM+αMEM
Experimental: It was chosen to use DPSCs to mimic early stages of tooth development in which DPSC-derived odontoblasts are in close contact with ameloblasts. The DPSCs, isolated, grown and characterized using well-defined standard protocols, were combined with organoid-derived epithelial stem cells in a layered approach, thereby forming composite organoids (assembloids) which were cultured in a mixture of TOM and the DPSC growth medium αMEM (FIG. 6d).
Whereas ODAM is not present in the straight (pure) epithelial organoids cultured in TOM (see above and FIG. 12c), it is expressed in the assembloids (FIG. 6d). This induction is not due to the addition of αMEM to TOM (FIG. 12c). […]
Primary dental follicle tissue, organoids and assembloid were fixed in 4% PFA for 1h, embedded in paraffin, and sections subjected to hematoxylin and eosin (H&E), immunofluorescence or ARS staining. […] ImageJ software was used to quantify immunoreactive signal intensity and the ‘corrected total organoid fluorescence’ (CTOF) (=integrated density−(area of organoid×mean fluorescence of background readings).
RNA was extracted from dissociated dental follicle, organoids and assembloids using the GenElute Mammalian Total RNA Miniprep Kit (Sigma-Aldrich) according to the manufacturer's instructions. […] Relative gene expression levels were calculated as ΔCt (Ct target−Ct housekeeping gene) and compared to control (see figure legends).

human dental follicle = experiment: Organoid formation from dissociated dental follicle; essentiality of medium factors assessed by omitting; assay type: cell-based; conditions: individual factor omitted from medium; P0, day 14 (FIG. 7a)
Excerpt: To develop epithelial organoids starting from human tooth, the dental follicle, known to encompass a large mesenchymal component but also the small epithelial epithelial cell rests of Malassez compartment, was isolated from unerupted third molars (wisdom teeth) extracted from adolescent patients (FIG. 1a). After tissue dissociation, the epithelial-mesenchymal cell mixture, comprising single cells and cell clusters, was embedded in Matrigel and cultured in a precisely defined medium. Organoids are typically established using a cocktail of growth and regulatory factors active in the tissue's epithelial stem cell niche. In case niche signals are unresolved, factors with a key role in the tissue's embryonic development are applied. […] The starting point is a medium containing these factors as well as generic organoid growth factors (such as WNT activators, nicotinamide, BMP inhibitor and p38 MAPK inhibitor), and assessed the essentiality of individual factors by omitting. […] Eventually, this systematic evaluation led to defining an optimized medium (further referred to as tooth organoid medium or TOM; Table 1), allowing to develop organoid lines from dental follicle samples at 100% efficiency (Table 2).
Third molars, predominantly unerupted, were extracted from adolescent patients (Table 2) at the ‘Oral and Maxillo-Facial Surgery-Imaging & Pathology (OMFS-IMPATH)’ unit of University Hospitals (UZ) Leuven after informed consent. The study was approved by the Ethics Committee Research UZ/KU Leuven (13/0104U). For sample collection, the gingiva was pushed aside after which the bone was perforated and the third molars with associated dental follicles were carefully isolated (without the visually distinct gingiva). dental follicle tissue was diligently peeled from the tooth and collected in Eagle's Minimum Essential Medium (αMEM; Sigma-Aldrich) supplemented with 10% foetal bovine serum (FBS; Sigma-Aldrich), 1% penicillin-streptomycin (Gibco) and 0.5% fungizone (Amphotericin B; Gibco). Following short rinsing steps in 70% ethanol and phosphate-buffered saline (PBS; Gibco), tissue was minced into small (˜1 mm^2) fragments, and further dissociated using collagenase VI (3 mg/ml; Thermo Fisher Scientific) and dispase II (4 mg/ml; Sigma-Aldrich) for 2 h at 37° C., while regularly pipetting up and down. The single cells and few small cell clusters were collected through a 40 μm cell strainer (Corning) while removing the remaining larger and fibrous tissue fragments.
(§3) The dissociated dental follicle cell material was resuspended in a mixture of serum-free defined medium (SFDM; Thermo Fisher Scientific; Table 4) and growth factor-reduced Matrigel (Corning) in a 30:70 ratio, which was plated in 48-well plates at 20,000 cells per 20 μL drop. After solidification, tooth organoid medium (TOM; Table 1), unless indicated otherwise, was supplemented. ROCK inhibitor (RI; 10 μM; Merck Millipore) was added the first day of seeding (or passaging). Organoid cultures were kept at 37° C. in a 1.9% CO2 incubator, and medium was refreshed every 2 to 3 days, each time supplemented with fungizone (0.1%).

tooth organoids [2] = experiment: EGF supplementation of tooth organoid cultures (TOM+EGF): proliferation and EMT; assay type: cell-based, human
Excerpt: To establish organoids from primary tissues, supplementation of EGF is generally found quintessential. […] In vivo, it is known that elevated EGF levels in the epithelial cell rests of Malassez compartment (as, for instance, occurring upon tooth movement, infection or trauma) activates epithelial cell rests of Malassez cell proliferation [Davis (2018) J. Vet. Dent. 35, 290-298]. […] It has been proposed that EMT induction in the epithelial cell rests of Malassez (as, for instance, occurring upon damaging tooth impact) enables the cells to migrate and eventually contribute to regeneration of neighbouring tissues [Davis (2018) J. Vet. Dent. 35, 290-298].
as §3, §1
as §2, with “Glyceraldehyde-3-phosphate dehydrogenase (GAPDH) was included as housekeeping gene.” left out

c1ccc(-c2nn3c(c2-c2ccnc4cc(OCCN5CCOCC5)ccc24)CCC3)nc1 [LY2109761, reference compound]
effect of TGFβ on ODAM and AMTN expression (tooth organoids [1]; inhibitor 5 μM added simultaneously with TGFβ in MIM): blocked
upregulated ODAM and AMTN expression in MIM (tooth organoids [1]; inhibitor 5 μM, without exogenous TGFβ): strongly reduced
AMTN expression in the assembloids (assembloids): reduced
ODAM protein expression in the assembloids (assembloids): completely abolished

Oc1ccc(-c2nc(-c3ccncc3)c(-c3ccc(F)cc3)[nH]2)cc1 [SB202190, reference compound]
need of the factor for efficient organoid formation (human dental follicle): needed for efficient organoid formation

NC(=O)c1cccnc1 [nicotinamide, reference compound]
need of the factor for efficient organoid formation (human dental follicle): needed for efficient organoid formation

FGF2
need of the factor for efficient organoid formation (human dental follicle): needed for efficient organoid formation

epidermal growth factor [EGF]
number of proliferating (KI67+) cells in the organoids (tooth organoids [2]; EGF 50 ng/ml to initiating cultures, P0, day 7): increased number
proliferation (tooth organoids [2]; EGF 50 ng/ml, P0, day 14): decline in proliferation
EMT / VIM expression in the organoids' border (tooth organoids [2]; EGF 50 ng/ml, P0, day 14, colocalized with CK5 or P63): induction of an EMT process
VIM+ cells after EGF exposure following growth and expansion in TOM (tooth organoids [2]; P5, day 14, also cell migration out of organoids): appearance of VIM^+ cells

insulin-like growth factor-1 [IGF1]
need of the factor for efficient organoid formation (human dental follicle): needed for efficient organoid formation

sonic hedgehog [SHH]
need of the factor for efficient organoid formation (human dental follicle): needed for efficient organoid formation

transforming growth factor-beta [TGFβ]
VIM expression in the epithelial (CK5+) organoids (tooth organoids [1]; MIM with TGFβ): further increased
AMTN gene expression (tooth organoids [1]; MIM with TGFβ 10 ng/ml, RT-qPCR): increased expression
expression of periodontal ligament-specific genes POSTN and COL3A1 (tooth organoids [1]; MIM with TGFβ, RT-qPCR): significantly stimulated
ODAM expression (immunofluorescence) (tooth organoids [1]; TOM-grown P5 organoids switched to MIM with TGFβ 10 ng/ml): further upregulated

B1: Noggin (protein, UniProt Q13253 28-232, looked up)
Noggin: QHYLHIRPAPSDNLPLVDLIEHPDPIFDPKEKDLNETLLRSLLGGHYDPGFMATSPPEDRPGGGGGAAGGAEDLAELDQLLRQRPSGAMPSEIKGLEFSEGLAQGKKQRLSKKLRRKLQMWLWSQTFCPVLYAWNDLGSRFWPRYVKVGSCFSKRSCSVPEGMVCKPSKSVHLTVLRWRCQRRGGQRCGWIPIQYPIISECKCSC
need of the factor for efficient organoid formation (human dental follicle): needed for efficient organoid formation

B2: R-spondin 1 (protein, UniProt Q2MKA7 21-263, looked up)
R-spondin-1: SRGIKGKRQRRISAEGSQACAKGCELCSEVNGCLKCSPKLFILLERNDIRQVGVCLPSCPPGYFDARNPDMNKCIKCKIEHCEACFSHNFCTKCKEGLYLHKGRCYPACPEGSSAANGTMECSSPAQCEMSEWSPWGPCSKKQQLCGFRRGSEERTRRVLHAPVGDHAACSDTKETRRCTVRRVPCPEGQKRRKGGQGRRENANRNLARKESKEAGAGSRRRKGQQQQQQQGTVGPLTSAGPA
need of the factor for efficient organoid formation (human dental follicle): needed for efficient organoid formation

B3: FGF8 (protein, UniProt P55075 23-233, looked up)
Fibroblast growth factor 8: QEGPGRGPALGRELASLFRAGREPQGVSQQHVREQSLVTDQLSRRLIRTYQLYSRTSGKHVQVLANKRINAMAEDGDPFAKLIVETDTFGSRVRVRGAETGLYICMNKKGKLIAKSNGKGKDCVFTEIVLENNYTALQNAKYEGWYMAFTRKGRPRKGSKTRQHQREVHFMKRLPRGHHTTEQSLRFEFLNYPPFTRSLRGSQRTWAPEPR
notes: fibroblast growth factor
need of the factor for efficient organoid formation (human dental follicle): needed for efficient organoid formation

B4: FGF10 (protein, UniProt O15520 38-208, looked up)
Fibroblast growth factor 10: QALGQDMVSPEATNSSSSSFSSPSSAGRHVRSYNHLQGDVRWRKLFSFTKYFLKIEKNGKVSGTKKENCPYSILEITSVEIGVVAVKAINSNYYLAMNKKGKLYGSKEFNNDCKLKERIEENGYNTYASFNWQHNGRQMYVALNGKGAPRRGQKTRRKNTSAHFLPMVVHS
notes: fibroblast growth factor
need of the factor for efficient organoid formation (human dental follicle): needed for efficient organoid formation
